Patent publication US8703483B2, “Reagents and methods for using human embryonic stem cells to evaluate toxicity of pharmaceutical compounds and other chemicals” (Wisconsin Alumni Research Foundation, priority 2006, dated 2014)

System: human embryonic stem cells
Assay: Metabolite profiling (LC/ESI-TOF mass spectrometry) of extracellular media of hESCs treated with alcohol
Format: cell-based
Source text: Binned masses were annotated in silico by querying the neutral masses in several different databases. These databases included Metlin, Biological Magnetic Resonance Data Bank (BMRB), NIST Chemistry WebBook, and the Human Metabolome Database. A mass was considered identified when its neutral mass was within 10 ppm of a known compound annotated in one of the databases listed above.

CCO [ETOH]
Fold: Unknown, mass 646.7084, RT 5.903429 (ETOH 0.1, 4 D): −1.271 fold | Fold: Unknown, mass 661.3846, RT 26.7452 (ETOH 0.1, 4 D): 1.295 fold | Fold: Unknown, mass 693.4124, RT 31.11764 (ETOH 0.1, 4 D): 2.318 fold | Fold: Unknown, mass 699.9225, RT 33.70266 (ETOH 0.1, 4 D): 1.719 fold | Fold: Unknown, mass 707.3928, RT 34.62439 (ETOH 0.1, 4 D): 2.137 fold | Fold: Unknown, mass 708.9387, RT 33.73428 (ETOH 0.1, 4 D): 2.16 fold | Fold: Unknown, mass 730.4494, RT 33.89008 (ETOH 0.1, 4 D): 2.614 fold | Fold: Unknown, mass 731.0954, RT 47.76987 (ETOH 0.1, 4 D): −2.776 fold | Fold: Unknown, mass 732.007, RT 5.918027 (ETOH 0.1, 4 D): 1.795 fold | Fold: Unknown, mass 751.4193, RT 35.028 (ETOH 0.1, 4 D): 1.87 fold | Fold: Unknown, mass 752.4629, RT 34.12668 (ETOH 0.1, 4 D): 2.067 fold | Fold: Unknown, mass 774.4767, RT 34.33545 (ETOH 0.1, 4 D): 2.104 fold | Fold: Unknown, mass 774.5055, RT 89.29926 (ETOH 0.1, 4 D): −2.401 fold | Fold: Unknown, mass 780.241, RT 5.886782 (ETOH 0.1, 4 D): −1.314 fold | Fold: Unknown, mass 796.4891, RT 34.52749 (ETOH 0.1, 4 D): 1.927 fold | Fold: Unknown, mass 796.9917, RT 34.60124 (ETOH 0.1, 4 D): 1.818 fold | Fold: Unknown, mass 820.8181, RT 4.613879 (ETOH 0.1, 4 D): −1.47 fold | Fold: Unknown, mass 888.8041, RT 5.259716 (ETOH 0.1, 4 D): −1.458 fold | Fold: Unknown, mass 921.0025, RT 5.399211 (ETOH 0.1, 4 D): 1.678 fold | Fold: Unknown, mass 1008.072, RT 3.705141 (ETOH 0.1, 4 D): 1.304 fold | Fold: Unknown, mass 1038.786, RT 5.177162 (ETOH 0.1, 4 D): 1.678 fold | Fold: glucuronide, mass 471.1928, RT 30.37291 (ETOH 0.1, 4 D): 2.001 fold | Fold: 3,4-Dihydroxybutyric acid, mass 129.0452, RT 16.73904 (ETOH 0.1, 24 H): 1.502 fold | Fold: 3-Methylindole, mass 131.0746, RT 22.22892 (ETOH 0.1, 24 H): −1.857 fold | Fold: (+/−)-2-(4′-Isobutylphenyl)propionitrile, mass 187.1343, RT 22.17997 (ETOH 0.1, 24 H): 1.488 fold | Fold: GABA analogue, mass 171.1244, RT 26.70635 (ETOH 0.1, 24 H): 2.376 fold | Fold: Malonylcarnitine, mass 229.0949, RT 24.52067 (ETOH 0.1, 24 H): −2.33 fold | Fold: Oxidized glutathione (Glutathione disulfide; GSSG; Oxiglutatione), mass 612.1509, RT 8.056862 (ETOH 0.1, 24 H): −1.474 fold | Fold: Unknown, mass 130.9541, RT 88.64043 (ETOH 0.1, 24 H): 1.632 fold | Fold: Unknown, mass 148.0052, RT 3.958833 (ETOH 0.1, 24 H): −1.948 fold | Fold: Unknown, mass 266.1613, RT 64.66999 (ETOH 0.1, 24 H): −1.519 fold | Fold: Unknown, mass 271.9364, RT 4.86619 (ETOH 0.1, 24 H): 2.629 fold | Fold: Unknown, mass 272.16, RT 43.99398 (ETOH 0.1, 24 H): 1.93 fold | Fold: Unknown, mass 285.2285, RT 63.00428 (ETOH 0.1, 24 H): 4.003 fold | Fold: Unknown, mass 294.0957, RT 6.160071 (ETOH 0.1, 24 H): 1.269 fold | Fold: Unknown, mass 296.2308, RT 71.55535 (ETOH 0.1, 24 H): 3.545 fold | Fold: Unknown, mass 300.1656, RT 17.18696 (ETOH 0.1, 24 H): 1.549 fold | Fold: Unknown, mass 337.2012, RT 8.542672 (ETOH 0.1, 24 H): 1.402 fold | Fold: Unknown, mass 362.2787, RT 83.72506 (ETOH 0.1, 24 H): 2.82 fold | Fold: Unknown, mass 379.1771, RT 20.76168 (ETOH 0.1, 24 H): −1.723 fold | Fold: Unknown, mass 387.0812, RT 19.97914 (ETOH 0.1, 24 H): 1.739 fold | Fold: Unknown, mass 388.1815, RT 17.53242 (ETOH 0.1, 24 H): −1.449 fold | Fold: Unknown, mass 393.1889, RT 15.90129 (ETOH 0.1, 24 H): −1.431 fold | Fold: Unknown, mass 396.1687, RT 6.259963 (ETOH 0.1, 24 H): 1.718 fold | Fold: Unknown, mass 437.2042, RT 32.18393 (ETOH 0.1, 24 H): 24.53 fold | Fold: Unknown, mass 462.2217, RT 22.95657 (ETOH 0.1, 24 H): −1.986 fold | Fold: Unknown, mass 464.225, RT 25.3287 (ETOH 0.1, 24 H): −1.631 fold | Fold: Unknown, mass 482.3062, RT 72.7735 (ETOH 0.1, 24 H): −1.959 fold | Fold: Unknown, mass 485.2069, RT 6.676207 (ETOH 0.1, 24 H): −2.014 fold | Fold: Unknown, mass 521.9924, RT 34.35986 (ETOH 0.1, 24 H): −1.446 fold | Fold: Unknown, mass 577.2825, RT 16.90923 (ETOH 0.1, 24 H): 1.728 fold | Fold: Unknown, mass 677.9101, RT 33.48766 (ETOH 0.1, 24 H): −2.221 fold | Fold: Unknown, mass 695.4286, RT 28.2045 (ETOH 0.1, 24 H): −32.9384 fold | Fold: Unknown, mass 707.4296, RT 56.18269 (ETOH 0.1, 24 H): 1.49 fold | Fold: Unknown, mass 711.8344, RT 4.826824 (ETOH 0.1, 24 H): −3.021 fold | Fold: Unknown, mass 765.5211, RT 69.32865 (ETOH 0.1, 24 H): 1.873 fold | Fold: Unknown, mass 909.5934, RT 8.502051 (ETOH 0.1, 24 H): 2.274 fold | Fold: Unknown, mass 913.8074, RT 5.217833 (ETOH 0.1, 24 H): −1.861 fold | Fold: Unknown, mass 994.0917, RT 3.646902 (ETOH 0.1, 24 H): 1.442 fold | Fold: 3,4-Dihydroxybutyric acid, mass 120.0436, RT 3.767232 (ETOH 0.3, 4 D): 1.936 fold | Fold: 3-(2,5-Dimethoxy phenylpropionic acid, mass 210.0922, RT 36.18938) (ETOH 0.3, 4 D): 1.85 fold | Fold: 3-Methylindole, mass 131.0746, RT 22.22892 (ETOH 0.3, 4 D): 2.502 fold | Fold: 5-Ethyl-5-(1-methyl-3-carboxypropyl)barbituric acid, mass 256.1066, RT 18.84552 (ETOH 0.3, 4 D): −2.141 fold | Fold: 5-Methoxytryptophan, mass 234.1253, RT 53.26863 (ETOH 0.3, 4 D): −1.624 fold | Fold: (+)-Eudesmin, mass 386.1724, RT 51.65871 (ETOH 0.3, 4 D): 4.851 fold | Fold: Amino-4methylthiobutyric acid, mass 149.0511, RT 7.479235 (ETOH 0.3, 4 D): −1.305 fold | Fold: Benzenemethanol, 2-(2-aminopropoxy)-3-methyl- / a-[1-(ethylamino)ethyl]-p-hydroxy-Benzyl alcohol, mass 195.124, RT 31.19917 (ETOH 0.3, 4 D): −1.86 fold | Fold: Homogentisic acid / Vanillic acid, mass 168.0434, RT 19.18355 (ETOH 0.3, 4 D): 1.282 fold | Fold: L-Histidine / 4-propionic acid, mass 155.0681, RT 5.559732 (ETOH 0.3, 4 D): 1.638 fold | Fold: Malonylcarnitine, mass 229.0949, RT 24.52067 (ETOH 0.3, 4 D): −1.74 fold | Fold: N-Methyl-2-pyrrolidinone, mass 99.0689, RT 15.48433 (ETOH 0.3, 4 D): 1.338 fold | Fold: Pantothenol / dimethylbutanamide;, mass 205.1304, RT 6.747279 (ETOH 0.3, 4 D): −1.339 fold | Fold: Phenanthrene-9,10-oxide / 9-Hydroxyphenanthrene; 9-Phenanthrol, mass 194.073, RT 5.935143 (ETOH 0.3, 4 D): −1.4 fold | Fold: Thiosulfate, mass 111.9839, RT 4.032816 (ETOH 0.3, 4 D): −8.676 fold | Fold: Unknown, mass 120.2112, RT 13.40565 (ETOH 0.3, 4 D): 3.9 fold | Fold: Unknown, mass 131.076, RT 14.35336 (ETOH 0.3, 4 D): 4.05 fold | Fold: Unknown, mass 162.0662, RT 44.88033 (ETOH 0.3, 4 D): 1.799 fold | Fold: Unknown, mass 201.1709, RT 19.48063 (ETOH 0.3, 4 D): −2.979 fold | Fold: Unknown, mass 218.0762, RT 6.62669 (ETOH 0.3, 4 D): −1.771 fold | Fold: Unknown, mass 229.1457, RT 55.50731 (ETOH 0.3, 4 D): −1.533 fold | Fold: Unknown, mass 243.11, RT 27.39631 (ETOH 0.3, 4 D): −1.495 fold | Fold: Unknown, mass 247.1049, RT 6.626769 (ETOH 0.3, 4 D): −4.476 fold | Fold: Unknown, mass 247.1408, RT 9.0276 (ETOH 0.3, 4 D): −2.751 fold | Fold: Unknown, mass 267.2543, RT 40.75868 (ETOH 0.3, 4 D): −1.6481 fold
